The target of one experiment is T1, heme-dimerized PGRMC1 (Homo sapiens, UniProt O00264).
T1 construct: human PGRMC1 intracellular domain residues 43-195; GST (N, cleaved yes); made in house; host or cells: E. coli BL21 (DE3)
The experiment in a line: ITC binding to heme-dimerized PGRMC1. To be noted: ITC; for KD / Kd: 298 K, 50 mM phosphate pH 7.0, heme-dimerized PGRMC1 (WT); for ΔG / ΔH / TΔS: heme-dimerized PGRMC1 (WT).

The next experiment has as its target T2, apo-PGRMC1 (Homo sapiens, UniProt O00264).
T2 construct: human PGRMC1 intracellular domain residues 43-195; GST (N, cleaved yes); made in house; host or cells: E. coli BL21 (DE3)
The experiment can be described thus: ITC binding to apo-PGRMC1. To be noted: apo-monomer form. The text has this: Bacterial expression vectors pGEX-PGRMC1 (human PGRMC1 intracellular domain residues 43-195) and mammalian FLAG-tagged expression vector pCMV-FLAG-PGRMC1 (full-length) were constructed as described previously. Expression vectors for PGRMC1 point mutants were generated by site-directed mutagenesis with PCR. For construction of HMGB1 expression vector, human HMGB1 full-length cDNA was cloned from cDNA library of HCT116 cells using the primers (Forward: 5′-[…]-3′, Reverse: 5′-[…]-[…]-3′), digested with Bam HI and Sal I, and then ligated into pGEX6P1.
Expression vectors (pGEX-PGRMC1 (residues 43-195) or pGEX-HMGB1) were transformed into BL21 (DE3) competent E. coli cells, and the cells incubated in LB medium with ampicillin at 37 °C until the OD600 reached 0.8. Protein expression was induced by adding 1 mM isopropyl-β-thiogalactopyranoside (IPTG) and incubating at 37 °C for 4 h. […]
ITC experiments were performed at 298 K with ITC-Buffer (50 mM phosphate [pH 7.0]) using a MicroCal iTC200 (Malvern Panalytical, Malvern, UK). […] Binding isotherms were analyzed using SEDPHAT [35]. The binding of AG205 to apo- or heme-PGRMC1 (100 μM) was analyzed using a concentration of 3 mM containing 1% DMSO. […]

Experiment [1] relates to GFP-fused PGRMC1 protein partially purified from granulosa cells. To be noted: competitive binding with labeled-progesterone; cited from earlier work.
For a further experiment, the system named is HCT116 cells. The experiment can be described thus: Chemosensitivity MTT assay in HCT116 cells. Type of experiment: cell-based, human. To be noted: for Anti-proliferative / anti-cancer effect with anti-cancer agents: HCT116, MTT, with erlotinib or CDDP, compared with GL; for IC50: Homo sapiens, HCT-116, HCT116 cell viability, MTT. A general note: Tetrazolium dyes change colour on reduction, which living cells bring about.

In the next experiment the test system is HCT116 cells xenograft. The experiment in a line: HCT116 xenograft in nude mice. The experiment is classed as in vivo, mouse. To be noted: i.p. twice a week, 22 days, CDDP 2 mg/kg, GL 400 mg/kg, vs control. The procedure:
All protocols for animal experiments in this study were approved by the Experimental Animal Committee of Keio University School of Medicine (approval number: 08024-(13), approval date: 30 September 2020). HCT116 cells (2 × 10^6 cells/mouse) with half of Matrigel (Corning, NY, USA) were transplanted subcutaneously into the flank of 7-week-old nude mice. Four days after the transplantation, tumor size was measured in three dimensions with calipers and grouped by tumor volume. CDDP (2 mg/kg), GL (400 mg/kg), or GlucoGL (100 mg/kg) were administered to the mice intraperitoneally, and the tumor volume was measured twice a week for 22 days.

Setting [2] is: with CDDP (10 µM), read-out: IC50 CDDP.
[3] abbreviates: with erlotinib (20 µM), read-out: IC50 Erlotinib.

Each structure is given as a SMILES string. Several values for one entry are separate records, joined by “and”; a condition that tells them apart may be missing. Equal values may be shown once. Entries after “also recorded” stand apart in the source; their conditions may differ. Read-outs that look alike come from different tables or passages of the source.

T1 sequence (O00264 43-195): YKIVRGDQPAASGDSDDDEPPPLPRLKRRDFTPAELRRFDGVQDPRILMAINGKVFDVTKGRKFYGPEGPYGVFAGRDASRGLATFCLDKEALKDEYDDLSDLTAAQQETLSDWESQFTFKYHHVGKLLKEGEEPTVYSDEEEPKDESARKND
T2 sequence (O00264 43-195): as above

`Cc1ccc2c(c1)[C@H]1CN(C)CC[C@H]1N2C(=O)CSc1nnnn1-c1ccc(Cl)cc1` [AG205]: the KD entry at heme-dimerized PGRMC1 is given as “no binding activity; also recorded: did not observe AG205 binding”. Also, the “Binding to apo-PGRMC1” value at apo-PGRMC1 is “no binding activity; also recorded: did not observe AG205 binding”.
`CC(=O)[C@H]1CC[C@H]2[C@@H]3CCC4=CC(=O)CC[C@]4(C)[C@H]3CC[C@]12C` [Progesterone]: at heme-dimerized PGRMC1, the Kd was 815 µM and 816 µM; the ΔG was -4.22 kcal/mol; the ΔH is -23.26 kcal/mol. Also, in experiment [1], the Kd was 35 nM.
Regarding `CC12CCC3(C)C(=CC(=O)C4C5(C)CCC(OC6OC(C(=O)O)C(O)C(O)C6OC6OC(C(=O)O)C(O)C(O)C6O)C(C)(C)C5CCC43C)C1CC(C)(C(=O)O)C(O)C2` (centres unmarked) [Macedonoside A], on heme-dimerized PGRMC1, the KD result was “No Binding”. The “Anti-proliferative / anti-cancer effect with anti-cancer agents” value (“Anti-proliferative / anti-cancer effect” for short) in the experiment on HCT116 cells was “weaker anti-proliferative effects”.
At heme-dimerized PGRMC1, `CC1(C(=O)O)CCC2(C)CCC3(C)C(=CC(=O)C4C5(C)CCC(OC6OC(C(=O)O)C(O)C(O)C6O)C(C)(C)C5CCC43C)C2C1` (centres unmarked) [Glycyrrhetinic acid-3-O-mono-glucuronide] had a Kd of 9.55 µM, a TΔS of 6.23 K·kcal/mol, a ΔG of -6.85 kcal/mol and a ΔH of -0.62 kcal/mol. Besides, the concentration for half-maximal inhibition (IC50) in the experiment on HCT116 cells (setting [2]) was found to be 41.2 µM. Moreover, the concentration for half-maximal inhibition (IC50) with HCT116 cells (setting [3]) turned out to be 50.5 µM.
As for `CC1(C(=O)O)CCC2(C)CCC3(C)C(=CC(=O)C4C5(C)CCC(OC6OC(C(=O)O)C(O)C(O)C6OC6OC(C(=O)O)C(O)C(O)C6O)C(C)(CO)C5CCC43C)C2C1` (centres unmarked) [Licorice-saponin G2], at heme-dimerized PGRMC1, the Kd was 128 µM, the TΔS amounted to 4.08 K·kcal/mol, the ΔG is -5.31 kcal/mol and the ΔH was -1.23 kcal/mol. The “Anti-proliferative / anti-cancer effect” value with HCT116 cells is “weaker anti-proliferative effects”.
Take `CC1(C)[C@@H](OC(=O)CCC(=O)O)CC[C@]2(C)[C@H]3C(=O)C=C4[C@@H]5C[C@@](C)(C(=O)O)CC[C@]5(C)CC[C@@]4(C)[C@]3(C)CC[C@@H]12` [Carbenoxolone]: on heme-dimerized PGRMC1, the KD result is “No Binding”. Besides, the “Anti-proliferative / anti-cancer effect” value with HCT116 cells is reported as “weaker anti-proliferative effects”.
With `CC1OC(OC2C(OC3C(OC4CCC5(C)C(CCC6(C)C5C(=O)C=C5C7CC(C)(C(=O)O)CCC7(C)CCC56C)C4(C)C)OC(C(=O)O)C(O)C3O)OC(CO)C(O)C2O)C(O)C(O)C1O` (centres unmarked) [Rhaoglucoglycyrrhizin], on heme-dimerized PGRMC1, binding was put at a Kd of 1.08 µM, the TΔS came to 6.08 K·kcal/mol, the ΔG was -8.15 kcal/mol and the ΔH is -2.07 kcal/mol. Further, in the experiment with HCT116 cells, the “Anti-proliferative / anti-cancer effect” value is “potent anti-cancer effects”. The half-maximal inhibitory concentration (IC50) in the experiment on HCT116 cells (setting [2]) came out at 17.2 µM. Also, the IC50 in the experiment on HCT116 cells (setting [3]) was 19.1 µM.
Regarding `[NH2][Pt]([NH2])([Cl])[Cl]` [CDDP, cisplatin], the “Tumor volume, administered individually” value in the experiment on HCT116 cells xenograft is listed as “no differences in tumor volume”.
Regarding `CC1(C)[C@@H](O)CC[C@]2(C)[C@H]3C(=O)C=C4[C@@H]5C[C@@](C)(C(=O)O)CC[C@]5(C)CC[C@@]4(C)[C@]3(C)CC[C@@H]12` [Glycyrrhetinic acid (GA), Glycyrrhetinic acid], the KD result on heme-dimerized PGRMC1 is on record as “Weak Binding”; on heme-dimerized PGRMC1 (listed as GA), “did not detect significant binding”.
Turning to `CC1(C(=O)O)CCC2(C)CCC3(C)C(=CC(=O)C4C5(C)CCC(OC6OC(C(=O)O)C(O)C(O)C6OC6OC(C(=O)O)C(O)C(O)C6O)C(C)(C)C5CCC43C)C2C1` (centres unmarked) [Licorice-saponin H2], the KD entry on heme-dimerized PGRMC1 was “No Binding”. Besides, in the experiment on HCT116 cells, the “Anti-proliferative / anti-cancer effect” value was “weaker anti-proliferative effects”.
Take `CC1(C(=O)O)CCC2(C)CCC3(C)C(=CC(=O)C4C5(C)CCC(OC6OC(C(=O)O)C(O)C(O)C6OC6OCC(O)(CO)C6O)C(C)(C)C5CCC43C)C2C1` (centres unmarked) [Apioglycyrrhizin]: on heme-dimerized PGRMC1, binding was put at a Kd of 4.85 µM, the TΔS amounted to 6.18 K·kcal/mol, the ΔG was -7.26 kcal/mol and the ΔH is -1.08 kcal/mol. Moreover, the “Anti-proliferative / anti-cancer effect” value in the experiment with HCT116 cells is reported as “potent anti-cancer effects”. Moreover, in the experiment with HCT116 cells (setting [2]), the IC50 is 35.1 µM. Besides, the IC50 in the experiment with HCT116 cells (setting [3]) turned out to be 62.5 µM.
Consider `CC1(C(=O)O)CCC2(C)CCC3(C)C(=CC(=O)C4C5(C)CCC(OC6OC(C(=O)O)C(O)C(O)C6OC6OCC(O)C(O)C6O)C(C)(C)C5CCC43C)C2C1` (centres unmarked) [Araboglycyrrhizin], for which, at heme-dimerized PGRMC1, binding was put at a Kd of 8.46 µM, the TΔS was determined as 5.90 K·kcal/mol, the ΔG is -6.93 kcal/mol and the ΔH was -1.03 kcal/mol. In the experiment on HCT116 cells, the “Anti-proliferative / anti-cancer effect” value was “potent anti-cancer effects”. Besides, in the experiment on HCT116 cells (setting [2]), the IC50 came to 26.6 µM. The IC50 in the experiment on HCT116 cells (setting [3]) came out at 35.3 µM.

In general, Kd refers to the concentration at which binding is half-saturated. In general, IC50 refers to the point on the concentration scale where inhibition reaches its midpoint.

Source of the values: article PMC8269059, “Glycyrrhizin Derivatives Suppress Cancer Chemoresistance by Inhibiting Progesterone Receptor Membrane Component 1” (Cancers, 2021).
